Assay results: patent publication EP0792271B1, “FURAN DERIVATIVES FOR INHIBITING PNEUMOCYSTIS CARINII PNEUMONIA, GIARDIA LAMBLIA AND CRYPTOSPORIDIUM PARVUM” (priority 1994, dated 1996)
Read-outs that look alike come from different tables or passages of the source.

Key:
[1] = molecular target: topoisomerase II isolated from Giardia lamblia; assay: Topoisomerase II inhibition (Giardia lamblia enzyme); assay type: biochemical; conditions: 50% inhibition of topoisomerase II isolated from Giardia lamblia; read-out: IC50 Topoisomerase Activity II G.l.
[2] = molecular target: T1, topoisomerase II isolated from Drosophila melanogaster (Drosophila melanogaster, UniProt P15348); assay: Topoisomerase II inhibition (Drosophila melanogaster enzyme); assay type: biochemical
T1 construct: topoisomerase II isolated from Drosophila melanogaster; from tissue
T1 sequence (P15348 1-1447): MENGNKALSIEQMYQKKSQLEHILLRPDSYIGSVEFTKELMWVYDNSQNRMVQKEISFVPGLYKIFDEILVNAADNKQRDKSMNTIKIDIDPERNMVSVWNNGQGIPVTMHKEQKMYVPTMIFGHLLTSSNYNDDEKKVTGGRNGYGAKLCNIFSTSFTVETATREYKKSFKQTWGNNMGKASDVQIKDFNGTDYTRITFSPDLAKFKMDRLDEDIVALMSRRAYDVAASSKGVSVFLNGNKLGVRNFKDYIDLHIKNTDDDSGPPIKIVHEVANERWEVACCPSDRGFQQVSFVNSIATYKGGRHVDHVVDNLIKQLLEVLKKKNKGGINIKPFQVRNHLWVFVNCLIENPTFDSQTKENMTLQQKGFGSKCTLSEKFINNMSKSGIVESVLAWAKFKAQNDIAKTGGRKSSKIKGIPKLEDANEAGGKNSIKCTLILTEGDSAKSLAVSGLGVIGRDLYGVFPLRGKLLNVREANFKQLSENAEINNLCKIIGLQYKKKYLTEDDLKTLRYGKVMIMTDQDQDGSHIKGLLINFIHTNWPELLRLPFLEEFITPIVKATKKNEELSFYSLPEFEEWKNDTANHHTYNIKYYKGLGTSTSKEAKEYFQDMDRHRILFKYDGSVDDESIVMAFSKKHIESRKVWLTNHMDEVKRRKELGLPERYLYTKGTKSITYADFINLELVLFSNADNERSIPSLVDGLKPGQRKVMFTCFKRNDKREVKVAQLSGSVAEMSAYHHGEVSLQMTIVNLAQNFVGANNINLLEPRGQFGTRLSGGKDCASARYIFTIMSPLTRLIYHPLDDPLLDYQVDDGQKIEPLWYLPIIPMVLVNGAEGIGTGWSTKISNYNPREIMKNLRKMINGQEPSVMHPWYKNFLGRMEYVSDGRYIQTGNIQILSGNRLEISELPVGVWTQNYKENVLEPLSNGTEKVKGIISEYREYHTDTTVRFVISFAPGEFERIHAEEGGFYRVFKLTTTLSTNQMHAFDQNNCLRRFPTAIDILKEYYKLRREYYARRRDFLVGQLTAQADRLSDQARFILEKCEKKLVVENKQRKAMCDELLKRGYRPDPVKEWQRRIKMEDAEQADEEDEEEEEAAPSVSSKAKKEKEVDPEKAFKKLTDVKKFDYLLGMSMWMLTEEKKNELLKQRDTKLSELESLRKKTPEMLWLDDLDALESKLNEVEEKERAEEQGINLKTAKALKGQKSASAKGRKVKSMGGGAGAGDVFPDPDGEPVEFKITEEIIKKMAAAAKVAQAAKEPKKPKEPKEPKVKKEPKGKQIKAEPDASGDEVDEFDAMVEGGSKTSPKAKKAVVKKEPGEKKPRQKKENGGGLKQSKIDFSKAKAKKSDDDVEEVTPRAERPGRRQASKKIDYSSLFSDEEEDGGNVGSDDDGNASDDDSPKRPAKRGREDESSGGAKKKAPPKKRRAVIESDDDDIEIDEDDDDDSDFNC

Giardia lamblia = assay: Inhibition of growth of Giardia lamblia in in vitro culture; assay type: cell-based; conditions: read-out: IC50 Giardia lamblia
Pneumocystis carinii = assay: In vivo activity against Pneumocystis carinii (lung cyst counts and toxicity); conditions: for Toxicity: toxicity scale, larger value = more severe, values greater than 2 indicate deaths of some animals
[3] = system: oligomer d(GCGCAATTGCGC)2; assay: DNA thermal melting (increase in Tm of oligomer); assay type: binding; conditions: increase in thermal melting of the oligomer d(GCGCAATTGCGC)2; MES buffer pH 6.0
Protocol: (§1) Thermal melting curves for DNA and its complexes with compounds from Examples 4, 6, and 7-9 are determined as previously described in F.A. Tanious, et al., J.Biomol. Structure & Dynamics 11:1063 (1994) and W.D. Wilson, et al., Biochemistry 32:4098 (1993), by following the adsorption change at 260 nm as a function of temperature. Tm values were determined from first derivative plots. Compounds are compared by the increase in Tm (ΔTm=Tm of complex - Tm of the free nucleic acid) they produce in MES buffer (0.01M 2-(N-morpholino) ethanesulfonic acid, 0.001 M EDTA, 0.1 M NaCl adjusted to pH 6.0) at saturating amounts of compound (a ratio of 0.3 moles of compound to nucleic acid bases) unless otherwise indicated.

poly A poly T = assay: DNA thermal melting (increase in Tm of poly A poly T); assay type: binding; conditions: MES buffer pH 6.0, 0.1 M NaCl, ratio of 0.3 moles of compound to nucleic acid bases
Protocol: as §1

[4] = molecular target: topoisomerase I isolated from Pneumocystis carinii; assay: Topoisomerase I inhibition (Pneumocystis carinii enzyme); assay type: biochemical; conditions: 50% inhibition of topoisomerase I isolated from Pneumocystis carinii
[5] = 50% inhibition of topoisomerase II isolated from Drosophila melanogaster, read-out: IC50 Topoisomerase Activity II D.m.
[6] = 50% inhibition of growth of Giardia lamblia in in vitro culture
[7] = Pneumocystis carinii, iv, read-out: cyst/g lung (% of control)

Compound: 2,5-bis[2-(imidazolinyl)phenyl]-3,4-bis(methoxymethyl)furan [Compound 18]
- IC50 [1]: 0.8 to 1 µM
- IC50 [2, 5]: 12.5 µM
- IC50 (Giardia lamblia; [6]): 4.42 µM

Compound: c1cc(-c2ccc(-c3ccc(C4=NCCN4)cc3)o2)ccc1C1=NCCN1 [Compound 2, 2,5-bis[4-(2-imidazolinyl)phenyl]furan]
- IC50 [2]: 8 µM
- response vs control in vivo at 23.3 µM (Pneumocystis carinii; [7]): 35.4%
- Toxicity (Pneumocystis carinii; dosage 23.3 µM/kg/day intravenous): +2
- IC50 (Giardia lamblia; Giardia duodenalis): 0.8 µM

Compound: c1cc(-c2ccc(-c3ccc(C4=NCCCCN4)cc3)o2)ccc1C1=NCCCCN1 [Compound 4, 2,5-bis[4-(4,5,6,7-tetrahydro-1H-1,3-diazepin-2-yl)phenyl]furan]
- ΔTm Oligomer [3]: 10.7 °C
- IC50 [1]: 1.5 µM
- IC50 [2]: 25 to 50 µM
- response vs control in vivo at 0.18 µM (Pneumocystis carinii; [7]): 115%
- response vs control in vivo at 2.3 µM (Pneumocystis carinii; [7]): 2.9%
- Toxicity (Pneumocystis carinii; dosage 0.18 µM/kg/day intravenous): 0
- Toxicity (Pneumocystis carinii; dosage 2.3 µM/kg/day intravenous): +3
- ΔTm DNA (poly A poly T): > 28 °C
- IC50 (Giardia lamblia; Giardia duodenalis): 1.1 µM

Compound: c1cc(-c2ccc(-c3ccc(C4=NC5CCCCC5N4)cc3)o2)ccc1C1=NC2CCCCC2N1 (stereo not shown) [Compound 5, 2,5-bis[4-(3a,4,5,6,7,7a-hexahydro-1H-benzimidazol-2-yl)phenyl]furan]
- ΔTm Oligomer [3]: 5.6 °C
- IC50 [1]: 3 to 6 µM
- IC50 [2]: 50 µM
- response vs control in vivo at 9.2 µM (Pneumocystis carinii; [7]): 80.5%
- Toxicity (Pneumocystis carinii; dosage 9.2 µM/kg/day intravenous): +1
- ΔTm DNA (poly A poly T): 24.5 °C
- IC50 (Giardia lamblia; Giardia duodenalis): 1.7 µM

Compound: OCCN1CCN=C1c1ccc(-c2ccc(-c3ccc(C4=NCCN4CCO)cc3)o2)cc1 [Compound 6, 2,5-bis{4[2-(N-2-hydroxyethyl)imidazolinyl]-phenyl}furan]
- ΔTm Oligomer [3]: 1 °C
- IC50 [1]: 20 µM
- IC50 [2]: 200 µM
- response vs control in vivo at 4.8 µM (Pneumocystis carinii; [7]): 107%
- Toxicity (Pneumocystis carinii; dosage 4.8 µM/kg/day intravenous): +3
- ΔTm DNA (poly A poly T): 12.2 °C
- IC50 (Giardia lamblia; Giardia duodenalis): 5.3 µM

Compound: CCN1CCN=C1c1ccc(-c2ccc(-c3ccc(C4=NCCN4CC)cc3)o2)cc1 [Compound 7, 2,5-bis-{4-[2-(N-ethylimidazolinyl)]phenyl}furan]
- IC50 [1]: 25 µM
- ΔTm DNA (poly A poly T): 11.8 °C

Compound: Cc1c(-c2ccc(C(=N)N)cc2)oc(-c2ccc(C(=N)N)cc2)c1C [Compound 8, 2,5-bis(4-amidinophenyl)-3,4-dimethyl furan]
- IC50 [1]: 0.75 µM
- IC50 [2]: 2.4 µM
- Toxicity (Pneumocystis carinii; dosage 24.7 µM/kg/day intravenous): +1
- IC50 (Giardia lamblia; Giardia duodenalis): 0.26 µM
- IC50 [4]: < 3.12 µM

Compound: Cc1ccc(Oc2cc(-c3ccc(C4=NCCN4)cc3)oc2-c2ccc(C3=NCCN3)cc2)cc1 [Compound 9, 2,5-[bis{4-(2-imidazolinyl)}phenyl]3-p-tolyloxy furan]
- IC50 [1]: 2 to 4 µM
- IC50 [2]: 25 µM
- Toxicity (Pneumocystis carinii; dosage 9.3 µM/kg/day intravenous): +2
- ΔTm DNA (poly A poly T): 18.1 °C
- IC50 (Giardia lamblia; Giardia duodenalis): > 100 µM
- IC50 [4]: 12.5 µM

Compound: Cc1ccc(Oc2cc(-c3ccc(C4=NCCCN4)cc3)oc2-c2ccc(C3=NCCCN3)cc2)cc1 [Compound 10]
- IC50 [1]: 1 to 3 µM
- IC50 [2]: 50 to 100 µM
- Toxicity (Pneumocystis carinii; dosage 1.8 µM/kg/day intravenous): +3
- ΔTm DNA (poly A poly T): > 28 °C
- IC50 (Giardia lamblia; Giardia duodenalis): 3.3 µM

Compound: NCCNC(=O)c1ccc2[nH]c(-c3ccc(-c4ccc(-c5ccc(-c6nc7cc(C(=O)NCCN)ccc7[nH]6)cc5)o4)cc3)nc2c1 [Compound 11, 2,5-bis{4-[5-(N-2-aminoethylamido)benzimidazol-2-yl]phenyl}furan]
- IC50 [1]: 5 µM
- IC50 [2]: > 300 µM
- Toxicity (Pneumocystis carinii; dosage 4.1 µM/kg/day intravenous): +4
- IC50 (Giardia lamblia; Giardia duodenalis): 0.62 µM

Compound: CN(C)NC(=O)c1ccc(-c2ccc(-c3ccc(C(=O)NN(C)C)cc3)o2)cc1 [Compound 12, 2,5-bis(4-N,N-dimethylcarboxhydrazidephenyl) furan]
- IC50 [1]: 0.6 to 1.2 µM
- IC50 [2, 5]: 30 to 60 µM
- cyst/g lung (% of control) (Pneumocystis carinii; dosage 7.78 µM/kg/day intravenous, percentage of saline-treated controls): 20.7 % of control
- Toxicity (Pneumocystis carinii; dosage 7.78 µM/kg/day intravenous): +3
- IC50 (Giardia lamblia; [6]): 0.35 µM

Compound: CN(C)CCCNC(=N)c1ccc(-c2ccc(-c3ccc(C(=N)NCCCN(C)C)cc3)o2)cc1 [Compound 14, 2,5-bis{4-[3-(dimethylaminopropyl)amidino]phenyl}furan]
- IC50 [1]: 0.25 µM
- IC50 [2]: > 6.2 µM
- Toxicity (Pneumocystis carinii; dosage 3.9 µM/kg/day intravenous): +3
- ΔTm DNA (poly A poly T): > 28 °C
- IC50 (Giardia lamblia; Giardia duodenalis): 8.98 µM

Compound: N=C(NC1CC1)c1ccc(-c2ccc(-c3ccc(C(=N)NC4CC4)cc3)o2)cc1 [Compound 15, 2,5-bis-[4-N-(cyclopropylamidino)phenyl]furan]
- IC50 [1]: 1.25 µM
- ΔTm DNA (poly A poly T): > 28 °C
- IC50 (Giardia lamblia; Giardia duodenalis): 0.63 µM

Compound: N=C(NCCO)c1ccc(-c2ccc(-c3ccc(C(=N)NCCO)cc3)o2)cc1 [Compound 16, 2,5-bis-{4-[(N-2-hydroxyethyl)amidino]phenyl}furan]
- IC50 [1]: 1.2 to 2.5 µM
- IC50 [2]: 25 to 50 µM
- Toxicity (Pneumocystis carinii; dosage 10.4 µM/kg/day intravenous): 0
- ΔTm DNA (poly A poly T): 21.1 °C
- IC50 (Giardia lamblia; Giardia duodenalis): 0.78 µM

Compound: CN(C)CCNC(=N)c1ccc(-c2ccc(-c3ccc(C(=N)NCCN(C)C)cc3)o2)cc1 [Compound 17, 2,5-bis[4-N-(dimethylaminoethyl)amidino]phenyl furan]
- IC50 [1]: 0.8 µM
- IC50 [2]: 12.5 µM
- IC50 (Giardia lamblia; Giardia duodenalis): 10.8 µM

Compound: N=C(NCCCN)c1ccc(-c2ccc(-c3ccc(C(=N)NCCCN)cc3)o2)cc1 [Compound 19, 2,5-bis-{4-[N-(3-aminopropyl)amidino]phenyl}furan]
- IC50 [1]: 0.625 µM
- IC50 [2]: 25 µM
- IC50 (Giardia lamblia; Giardia duodenalis): 0.059 µM

Compound: Cc1cc(-c2ccc(C(=N)NC(C)C)cc2)oc1-c1ccc(C(=N)NC(C)C)cc1 [Compound 20, 2,5-bis[4-(N-isopropylamidino)phenyl]-3-methylfuran]
- IC50 [1]: 1 to 2 µM
- IC50 [2]: 3 µM
- IC50 (Giardia lamblia; Giardia duodenalis): 4.4 µM
- IC50 [4]: 50 to 100 µM

Compound: N=C(N)c1ccc(OCCCCCOc2ccc(C(=N)N)cc2)cc1 [Pentamidine, reference compound]
- response vs control in vivo at 22.1 µM (Pneumocystis carinii; [7]): 3.66%
- Toxicity (Pneumocystis carinii; dosage 22.1 µM/kg/day intravenous): +2
